Laboratory results from paper PMC7259601 (PLoS ONE, 2020).

Tests used:
[1] = test system: FAD cofactor (in KDM1A or free); assay: KDM1A binding analysis (FAD absorbance at 450 nm)
Protocol: Analysis of binding of inhibitors to KDM1A was as previously described [22](Yang et al., 2007) with minor modifications. The binding to FAD (present in the enzyme or free) was analyzed by measuring the decrease in absorbance at 450nm in a Tecan Infinite F200 microplate reader. Briefly, KDM1A enzyme was mixed with the inhibitor (without substrate) and the absorbance at 450nm was compared with the absorbance of the KDM1A enzyme without inhibitor. The reaction is monitored during 30 min and values used to calculate Kobs.
Absorbance at 450 nm was measured as described and Kobs was calculated following the equation: […]

KDM1A = KDM1A (Homo sapiens, UniProt O60341); assay: MALDI-TOF mass spectrometry of FAD-ORY-2001 adducts; type: binding
Protocol: The sample was initially purified by reversed phase chromatography in a ZipTipC18 pipette tip (Millipore, USA) wet using column and equilibrated with 0.1% TFA. The sample was bound to the column by repeated aspiring and dispensing to achieve maximum binding. The ZipTip pipette tip was washed three times with 0.1% TFA and eluted in 4 µl. of 50 % ACN/ 0.1% TFA. 1 µl of eluted sample was loaded onto an AnchorChip MALDI target (Bruker, Germany); 2 µl. of matrix solution (0.3 mg/ml HCCA -alpha-cyano-4-hydroxycinamic acid in EtOH/acetone 2:1) was added and the mixture was allowed to dry at room temperature. The sample preparations were analyzed in an AutoFlex Speed MALDI TOF/TOF mass spectrometer (Bruker, Germany), equipped with a Nd:YAG laser. MS spectra were acquired in Reflector mode, with either positive or negative polarity. MSMS post source-decay fragmentation spectra of selected precursor ions were obtained using the LIFT module (Bruker, Germany).

SAMP8 mice = assay: Open Field (OF); type: in vivo, mouse; conditions: 0.32 or 0.96 mg/kg/day
Protocol: Both male and female mice from the senescence accelerated strain SAMP8 and its control SAMR1 of different ages (see Table S3 for details) were used in these studies. Mice were breed in the animal facilities of the Pharmacy Faculty (University of Barcelona), maintained in a at 22 ± 2 °C controlled temperature in a 12 hr light / dark cycle (lights on at 8:00 am; 300 lux/0 lux) with ad libitum access to food (2018 TEKLAD, Harlan) and water. Male mice were housed individually (males) or in groups of 4-5 animals (females) in plastic colony boxes with a sawdust bedding material. […] SAMR1 mice treated with vehicle were included as a control. […] Drug concentration was calculated weekly in function of body weight and corrected in function of drinking water consumption. Cognitive function was evaluated by NORT, social behavior was evaluated by RI and anxiety and motor function were evaluated by EPM and OF. […]
A 50 × 50-cm white plastic arena with 25-cm-high walls was used to analyze spontaneous exploratory behavior. […] The movements of each animal were video recorded during 5 min. Locomotor activity was analyzed by video-tracking over the captured images using SMART® (v 2.5.21 (rat) or v3.0 (mice), PanLab, SLU, Spain).
Novel Object Recognition Test (NORT): Time exploring the novel (NO) and the familiar object (FO) was measured and a discrimination Index (DI) was defined as (NO-FO)/(NO+FO). […]

[2] = test system: 5-HT (non-selective) (agonist radioligand); assay: CEREP Diversity Panel; type: binding; parameters: dose or concentration left out as unconfirmed
Protocol: (§1) […]. MAO-A inhibition at 10 μM was 37%, in line with internal data.

[3] = test system: BZD (central) (agonist radioligand); assay: CEREP Diversity Panel; type: binding; parameters: dose or concentration left out as unconfirmed
Protocol: as §1

[4] = test system: Ca 2+ channel (L, dihydropyridine site) (antagonist radioligand); assay: CEREP Diversity Panel; type: binding; parameters: dose or concentration left out as unconfirmed
Protocol: as §1

[5] = test system: Ca 2+ channel (L, diltiazem site) (benzothiazepines) (antagonist radioligand); assay: CEREP Diversity Panel; type: binding; parameters: dose or concentration left out as unconfirmed
Protocol: as §1

[6] = test system: Ca 2+ channel (L, verapamil site) (phenylalkylamine) (antagonist radioligand); assay: CEREP Diversity Panel; type: binding; parameters: dose or concentration left out as unconfirmed
Protocol: as §1

[7] = test system: Cl- channel (GABA-gated) (antagonist radioligand); assay: CEREP Diversity Panel; type: binding; parameters: dose or concentration left out as unconfirmed
Protocol: as §1

[8] = test system: GABA (non-selective) (agonist radioligand); assay: CEREP Diversity Panel; type: binding; parameters: dose or concentration left out as unconfirmed
Protocol: as §1

[9] = test system: KATP channel (antagonist radioligand); assay: CEREP Diversity Panel; type: binding; parameters: dose or concentration left out as unconfirmed
Protocol: as §1

[10] = test system: KV channel (antagonist radioligand); assay: CEREP Diversity Panel; type: binding; parameters: dose or concentration left out as unconfirmed
Protocol: as §1

[11] = test system: NMDA (antagonist radioligand); assay: CEREP Diversity Panel; type: binding; parameters: dose or concentration left out as unconfirmed
Protocol: as §1

[12] = test system: P2X (agonist radioligand); assay: CEREP Diversity Panel; type: binding; parameters: dose or concentration left out as unconfirmed
Protocol: as §1

[13] = test system: P2Y (agonist radioligand); assay: CEREP Diversity Panel; type: binding; parameters: dose or concentration left out as unconfirmed
Protocol: as §1

[14] = test system: PCP (antagonist radioligand); assay: CEREP Diversity Panel; type: binding; parameters: dose or concentration left out as unconfirmed
Protocol: as §1

[15] = test system: SKCa channel (antagonist radioligand); assay: CEREP Diversity Panel; type: binding; parameters: dose or concentration left out as unconfirmed
Protocol: as §1

[16] = test system: Y (non-selective) (agonist radioligand); assay: CEREP Diversity Panel; type: binding; parameters: dose or concentration left out as unconfirmed
Protocol: as §1

[17] = test system: alpha 1 (non-selective) (antagonist radioligand); assay: CEREP Diversity Panel; type: binding; parameters: dose or concentration left out as unconfirmed
Protocol: as §1

[18] = test system: alpha 2 (non-selective) (antagonist radioligand); assay: CEREP Diversity Panel; type: binding; parameters: dose or concentration left out as unconfirmed
Protocol: as §1

[19] = test system: kainate (agonist radioligand); assay: CEREP Diversity Panel; type: binding; parameters: dose or concentration left out as unconfirmed
Protocol: as §1

For Nc1nnc(CN[C@@H]2C[C@H]2c2ccc(OCc3ccccc3)cc2)o1 [ORY-2001, vafidemstat], the “binding to free FAD” value [1] was “does not bind free FAD”, the “mode of inhibition of KDM1A (FAD cofactor)” value ([1]; absorbance spectrum and MALDI-TOF) was “covalent binding” and the “adduct formation with KDM1A” value (KDM1A) was “adduct formation”. The “locomotor activity in the OF test” value (SAMP8 mice) was “no significant genotype or treatment differences”, the “% inhibition” value [2] was 5% and the “% inhibition” value [3] was -21%. For the same compound, the “% inhibition” value [4] was -1%, the “% inhibition” value [5] was 0% and the “% inhibition” value [6] was 5%. For the same compound, the “% inhibition” value [7] was 31%, the “% inhibition” value [8] was 6% and the “% inhibition” value [9] was 3%. The “% inhibition” value [10] was -4%, the “% inhibition” value [11] was 6% and the “% inhibition” value [12] was 3%. For the same compound, the “% inhibition” value [13] was 5%, the “% inhibition” value [14] was 1% and the “% inhibition” value [15] was -11%. For the same compound, the “% inhibition” value [16] was -28%, the “% inhibition” value [17] was 0% and the “% inhibition” value [18] was 3%. The “% inhibition” value [19] was 2%.
